Where “and” joins values, the source holds several entries; their conditions need not be identical. Equal values may be shown once. Entries after “also recorded” stand apart in the source; their conditions may differ.
Key:
five isoforms of CYP450 = experiment: CYP450 inhibition, five isoforms; assay type: in vitro ADME
[1] = test system: striatal medium spiny neurons in brain slice explants co-transfected with YFP and mHTT; experiment: HD brain slice assay; assay type: cell-based, rat
Protocol: Resonances with large chemical shifts are labeled in green. Rat coronal brain slice explants co-transfected with YFP and Tau-4R (FIG. 16B) or striatal brain slice explants co-transfected with YFP and mHTT (FIG. 16C) were treated with LC-43 or DMSO carrier-only for 3 days. The respective regions of each brain slice were then scored for numbers of healthy (FIG. 16B) pyramidal or (FIG. 16C) medium spiny neurons remaining. Data are normalized to the negative control condition set to 100% and plotted as means±SEM. In FIG. 16D, The confocal images shown are maximal z-stacks of 0.5 μm steps (˜20 images per stack). (Bottom) Reduction of neuronal redox state by LC-43. Left, Primary neurons were co-transfected with mCherry (to positively identify transfected neurons) and the genetically encoded ratiometric redox reporter roGFP2. Four days later, the culture medium was changed into an identical formulation except without conventional antioxidant additives. […]
Brain slice explants were prepared and transfected as previously described (Reinhart et al., 2011). […] Striatal medium spiny neurons (MSNs) expressing YFP were visualized under fluorescence microscopy and identified based on their location within brain slices and their characteristic morphology.

Adrenergic α1A = Adrenergic α1A (Rattus norvegicus, UniProt P43140); experiment: Off-target panel, Adrenergic α1A; assay type: binding; conditions: Conc. 3 μM
Adrenergic α1B = Adrenergic α1B (Rattus norvegicus, UniProt P15823); experiment: Off-target panel, Adrenergic α1B; assay type: binding; conditions: Conc. 3 μM
Muscarinic M2 = Muscarinic M2 (Homo sapiens, UniProt P08172); experiment: Off-target panel, Muscarinic M2; assay type: binding; conditions: Conc. 3 μM
Sequence of Muscarinic M2 (P08172 whole entry): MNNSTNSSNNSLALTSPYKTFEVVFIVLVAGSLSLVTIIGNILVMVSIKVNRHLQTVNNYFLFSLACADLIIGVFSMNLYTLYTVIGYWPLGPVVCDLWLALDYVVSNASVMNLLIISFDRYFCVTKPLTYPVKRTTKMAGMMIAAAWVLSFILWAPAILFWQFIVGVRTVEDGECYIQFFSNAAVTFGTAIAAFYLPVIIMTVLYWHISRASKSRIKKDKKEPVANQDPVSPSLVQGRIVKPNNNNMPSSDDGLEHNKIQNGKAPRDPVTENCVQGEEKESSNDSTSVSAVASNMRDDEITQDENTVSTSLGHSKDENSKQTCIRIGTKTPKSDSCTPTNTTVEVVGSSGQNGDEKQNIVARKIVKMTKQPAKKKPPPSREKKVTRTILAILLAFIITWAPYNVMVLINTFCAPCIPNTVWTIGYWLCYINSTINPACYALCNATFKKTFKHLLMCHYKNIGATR

[2] = molecular target: Transporter, Norepinephrine (NET) (Homo sapiens, UniProt P23975); experiment: Off-target panel, Norepinephrine transporter; assay type: binding; conditions: Conc. 3 μM
Sequence of Transporter, Norepinephrine (NET) (P23975 whole entry): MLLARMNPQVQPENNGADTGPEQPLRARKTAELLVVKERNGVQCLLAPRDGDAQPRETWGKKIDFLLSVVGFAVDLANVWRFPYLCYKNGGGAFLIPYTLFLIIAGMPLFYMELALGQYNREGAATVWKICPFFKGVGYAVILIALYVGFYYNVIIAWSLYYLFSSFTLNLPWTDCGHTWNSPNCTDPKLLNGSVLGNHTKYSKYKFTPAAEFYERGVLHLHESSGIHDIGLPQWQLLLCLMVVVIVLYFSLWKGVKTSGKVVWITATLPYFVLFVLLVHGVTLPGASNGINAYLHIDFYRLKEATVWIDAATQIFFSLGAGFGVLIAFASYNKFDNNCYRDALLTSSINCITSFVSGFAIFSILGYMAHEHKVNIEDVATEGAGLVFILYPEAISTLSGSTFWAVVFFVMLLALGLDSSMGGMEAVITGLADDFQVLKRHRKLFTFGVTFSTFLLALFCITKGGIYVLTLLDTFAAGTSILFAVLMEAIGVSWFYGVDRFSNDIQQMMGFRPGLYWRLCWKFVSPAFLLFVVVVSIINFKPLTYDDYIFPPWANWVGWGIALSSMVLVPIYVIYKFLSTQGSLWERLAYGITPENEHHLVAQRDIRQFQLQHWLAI

[3] = molecular target: T1, CHRM2 (muscarinic acetylcholine receptor M2) (Homo sapiens, UniProt P08172); experiment: Safety47 panel GPCR CHRM2; assay type: cell-based
T1 construct: CEREP (CRO that ran the panel)
T1 sequence (P08172 whole entry): as the sequence (P08172 whole entry) above
From the text: (§1) LOC14 was also submitted for testing in CEREP's Safety47 panel. CEREP is a CRO specializing in preclinical research, discovery and development of new pharmaceutical drugs.

NET = molecular target: T2, NET (Homo sapiens, UniProt P23975); experiment: Safety47 panel transporter NET; assay type: cell-based; conditions: Blocker mode; 3 μM
T2 construct: CEREP (CRO panel)
T2 sequence (P23975 whole entry): as the sequence (P23975 whole entry) above
From the text: as §1

GABAA = experiment: Safety47 panel ion channel GABAA; assay type: cell-based, human; conditions: 3 μM
From the text: as §1

COX1 = molecular target: T3, COX1 (Homo sapiens, UniProt P23219); experiment: Safety47 panel non-kinase enzyme COX1; assay type: biochemical; conditions: Inhibitor mode; 3 μM
T3 construct: CEREP (CRO panel)
T3 sequence (P23219 24-599): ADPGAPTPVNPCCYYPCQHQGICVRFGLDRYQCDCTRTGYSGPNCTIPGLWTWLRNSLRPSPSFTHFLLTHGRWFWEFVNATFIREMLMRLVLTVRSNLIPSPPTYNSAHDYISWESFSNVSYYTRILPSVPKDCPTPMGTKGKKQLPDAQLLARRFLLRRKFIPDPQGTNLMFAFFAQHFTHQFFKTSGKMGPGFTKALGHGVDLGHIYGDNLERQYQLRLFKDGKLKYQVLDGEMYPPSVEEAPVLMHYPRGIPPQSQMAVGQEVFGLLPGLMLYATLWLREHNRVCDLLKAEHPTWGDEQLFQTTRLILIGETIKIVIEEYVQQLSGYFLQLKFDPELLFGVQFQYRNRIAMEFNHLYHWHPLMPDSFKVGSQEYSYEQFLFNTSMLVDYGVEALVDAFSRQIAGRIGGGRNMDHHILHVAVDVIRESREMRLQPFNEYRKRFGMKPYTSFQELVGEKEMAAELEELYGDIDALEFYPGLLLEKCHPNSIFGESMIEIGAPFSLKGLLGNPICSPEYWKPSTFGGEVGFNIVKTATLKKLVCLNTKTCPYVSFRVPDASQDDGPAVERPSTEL
From the text: as §1

ROCK1 = molecular target: T4, ROCK1 (Homo sapiens, UniProt Q13464); experiment: Safety47 panel kinase ROCK1; assay type: biochemical; conditions: Inhibitor mode; 3 μM
T4 construct: CEREP (CRO, Safety47 panel)
T4 sequence (Q13464 whole entry): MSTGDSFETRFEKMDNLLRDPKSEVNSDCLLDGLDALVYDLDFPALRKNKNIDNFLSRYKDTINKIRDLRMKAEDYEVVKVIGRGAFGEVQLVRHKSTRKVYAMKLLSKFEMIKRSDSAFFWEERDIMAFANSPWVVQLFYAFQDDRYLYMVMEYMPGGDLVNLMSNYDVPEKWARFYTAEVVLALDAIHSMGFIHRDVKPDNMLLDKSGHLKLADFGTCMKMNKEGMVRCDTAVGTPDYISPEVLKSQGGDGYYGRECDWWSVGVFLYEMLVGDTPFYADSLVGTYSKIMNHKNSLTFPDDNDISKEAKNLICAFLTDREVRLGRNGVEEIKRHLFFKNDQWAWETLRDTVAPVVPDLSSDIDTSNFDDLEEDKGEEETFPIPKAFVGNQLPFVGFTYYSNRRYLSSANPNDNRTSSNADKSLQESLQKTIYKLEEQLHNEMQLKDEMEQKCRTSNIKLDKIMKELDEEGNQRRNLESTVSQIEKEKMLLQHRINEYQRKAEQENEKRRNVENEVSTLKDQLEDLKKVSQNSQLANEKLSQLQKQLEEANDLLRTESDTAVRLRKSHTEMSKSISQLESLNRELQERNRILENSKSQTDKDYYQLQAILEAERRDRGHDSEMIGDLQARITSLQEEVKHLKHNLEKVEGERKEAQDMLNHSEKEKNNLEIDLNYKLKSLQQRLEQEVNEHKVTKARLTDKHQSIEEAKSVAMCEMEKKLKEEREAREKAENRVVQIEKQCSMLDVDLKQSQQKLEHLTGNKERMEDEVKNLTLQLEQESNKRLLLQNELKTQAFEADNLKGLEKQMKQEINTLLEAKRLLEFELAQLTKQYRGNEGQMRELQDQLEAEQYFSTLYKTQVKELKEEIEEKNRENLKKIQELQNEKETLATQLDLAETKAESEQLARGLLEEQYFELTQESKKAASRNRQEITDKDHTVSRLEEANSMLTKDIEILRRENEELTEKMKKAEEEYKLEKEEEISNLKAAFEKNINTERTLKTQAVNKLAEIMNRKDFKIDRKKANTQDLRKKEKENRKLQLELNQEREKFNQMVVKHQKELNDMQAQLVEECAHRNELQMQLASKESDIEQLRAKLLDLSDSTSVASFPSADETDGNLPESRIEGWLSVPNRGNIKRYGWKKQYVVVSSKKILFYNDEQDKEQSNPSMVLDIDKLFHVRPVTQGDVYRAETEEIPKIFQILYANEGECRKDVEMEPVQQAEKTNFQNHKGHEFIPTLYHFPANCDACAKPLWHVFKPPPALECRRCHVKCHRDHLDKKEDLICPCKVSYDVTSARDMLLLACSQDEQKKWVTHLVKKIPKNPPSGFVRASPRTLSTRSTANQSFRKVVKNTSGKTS
From the text: as §1

CYP1A2 = molecular target: T5, CYP1A2 (Homo sapiens, UniProt P05177); experiment: CYP450 inhibition, CYP1A2; assay type: in vitro ADME; conditions: high concentration of 30 μM
T5 construct: Cyprotex (CRO)
T5 sequence (P05177 whole entry): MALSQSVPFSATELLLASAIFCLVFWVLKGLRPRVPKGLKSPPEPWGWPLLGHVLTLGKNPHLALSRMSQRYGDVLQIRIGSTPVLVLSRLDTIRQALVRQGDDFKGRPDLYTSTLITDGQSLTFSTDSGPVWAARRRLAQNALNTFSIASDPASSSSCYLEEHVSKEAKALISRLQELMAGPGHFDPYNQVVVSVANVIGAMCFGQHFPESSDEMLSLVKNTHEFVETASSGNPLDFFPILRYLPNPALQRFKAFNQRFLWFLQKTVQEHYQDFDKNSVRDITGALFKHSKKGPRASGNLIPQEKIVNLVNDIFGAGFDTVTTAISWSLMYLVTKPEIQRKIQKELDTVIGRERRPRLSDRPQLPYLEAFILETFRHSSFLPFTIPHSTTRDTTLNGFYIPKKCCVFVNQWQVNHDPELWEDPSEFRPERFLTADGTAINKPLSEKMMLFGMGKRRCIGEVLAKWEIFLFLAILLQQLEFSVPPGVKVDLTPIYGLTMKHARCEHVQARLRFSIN

ST14A mHTTQ120 cells = experiment: Rescue of ST14A mHTTQ120 cells (39° C., serum starved, CellTiter-Glo); assay type: cell-based, rat; conditions: 48 hours
From the text: Having elucidated the molecular mechanism of LOC14's binding to PDI, we next tested whether PDI modulation with LOC14 would be effective in neurodegenerative disease models. First, we evaluated LOC14's neuroprotection in rat neuron-like PC12 cells stably transfected with an inducible plasmid for truncated mutant huntingtin protein (mHTT^Q103). […] We next evaluated the activity of LOC14 in cells that more closely represent the medium-size spiny neurons affected in Huntington Disease patients. We used rat embryonic day 14 striatal neuronal cells (ST14A) immortalized by transduction of temperature-sensitive SV40 large T antigen (Cattaneo and Conti, 1998; Ehrlich et al. 2001; Rigamonti et al. 2000). Under serum deprivation and at 39° C., where large T antigen is degraded, ST14A cells undergo cell death within 48-72 hours. This death was rescued by treatment with LOC14 (FIG. 13B).

47 human targets = experiment: CEREP Safety47 panel (summary); conditions: 3 μM
From the text: as §1

Potassium Channel hERG = Potassium Channel hERG (Homo sapiens, UniProt Q12809)
Sequence of Potassium Channel hERG (Q12809 whole entry): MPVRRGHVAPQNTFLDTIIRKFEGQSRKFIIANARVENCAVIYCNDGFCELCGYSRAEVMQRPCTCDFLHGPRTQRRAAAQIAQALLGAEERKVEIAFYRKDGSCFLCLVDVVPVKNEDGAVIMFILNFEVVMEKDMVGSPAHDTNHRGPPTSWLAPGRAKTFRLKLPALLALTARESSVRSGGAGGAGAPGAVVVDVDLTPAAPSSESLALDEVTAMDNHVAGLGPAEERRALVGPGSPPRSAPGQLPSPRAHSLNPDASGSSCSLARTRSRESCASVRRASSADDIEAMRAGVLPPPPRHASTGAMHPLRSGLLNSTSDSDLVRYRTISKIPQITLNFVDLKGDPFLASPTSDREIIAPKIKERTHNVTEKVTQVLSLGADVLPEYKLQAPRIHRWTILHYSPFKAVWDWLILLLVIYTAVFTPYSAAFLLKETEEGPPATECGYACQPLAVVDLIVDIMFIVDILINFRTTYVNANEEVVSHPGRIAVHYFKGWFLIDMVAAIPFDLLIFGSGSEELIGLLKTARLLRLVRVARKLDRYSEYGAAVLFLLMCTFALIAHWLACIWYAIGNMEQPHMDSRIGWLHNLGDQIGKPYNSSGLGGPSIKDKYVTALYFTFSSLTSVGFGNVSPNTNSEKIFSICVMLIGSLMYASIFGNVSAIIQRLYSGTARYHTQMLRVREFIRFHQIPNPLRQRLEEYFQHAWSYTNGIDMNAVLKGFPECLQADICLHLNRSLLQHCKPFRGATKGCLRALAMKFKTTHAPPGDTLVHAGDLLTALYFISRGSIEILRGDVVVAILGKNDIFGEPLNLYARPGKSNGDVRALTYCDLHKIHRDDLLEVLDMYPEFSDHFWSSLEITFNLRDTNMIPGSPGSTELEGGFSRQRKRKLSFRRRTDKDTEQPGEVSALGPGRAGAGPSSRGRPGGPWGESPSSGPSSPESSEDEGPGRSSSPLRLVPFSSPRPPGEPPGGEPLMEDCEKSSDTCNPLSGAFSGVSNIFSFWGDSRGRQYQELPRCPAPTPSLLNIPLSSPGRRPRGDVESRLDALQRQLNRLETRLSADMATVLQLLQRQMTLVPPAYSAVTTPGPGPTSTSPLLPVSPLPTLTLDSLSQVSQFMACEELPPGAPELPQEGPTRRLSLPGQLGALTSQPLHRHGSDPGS

[4] = cited from earlier work

O=C(C1CC1)N1CCN(Cn2sc3c(F)cccc3c2=O)CC1 [LC-43]
inhibition of the five isoforms of CYP450 (five isoforms of CYP450): does not show any inhibition | rescue of medium spiny neurons in HD brain slice ([1]; 3 days treatment): dose-dependent rescue; also recorded: robust neuroprotection | concentration that provided peak rescue ([1]; HD brain slice assay): 10 µM

O=C(C1CC1)N1CCN(Cn2sc3ccccc3c2=O)CC1 [LOC14]
inhibition at 3 µM (Adrenergic α1A): -14% | inhibition at 3 µM (Adrenergic α1B): 2% | inhibition at 3 µM (Muscarinic M2): -3% | inhibition at 3 µM [2]: 24% | activity (response) against muscarinic acetylcholine receptor M2 [3]: < 95% and 70% | Average (NET): 0.0 | Average (GABAA; Blocker mode): 5.1 | Average (GABAA; Opener mode): 0.0 | Average (COX1): 1.4 | Average (ROCK1): 13.5 | inhibition of CYP1A2 (CYP1A2): inhibits | EC100 (ST14A mHTTQ120 cells): 6 nM | off-target effects in Safety47 panel (47 human targets): no significant off-target effects | binding to the hERG receptor (Potassium Channel hERG): does not bind to the hERG receptor | tolerated dose ([4]; in mice): 20 mg/kg | oral bioavailability ([4]; mouse, in vivo, po): orally bioavailable | blood-brain-barrier penetration ([4]; mouse, in vivo): blood-brain-barrier penetrant | half-life in the brain ([4]; via oral gavage): 2.2 h

Reference: US20220380383A1, “NEUROPROTECTIVE PDI MODULATING SMALL MOLECULES AND METHODS OF USE THEREOF” (THE TRUSTEES OF COLUMBIA UNIVERSITY IN THE CITY OF NEW YORK, priority 2018, published 2022)
